Test results from publication PMC11892739, “Site-specific molecular glues for the 14-3-3/Tau pS214 protein–protein interaction via reversible covalent imine tethering” (RSC Medicinal Chemistry, 2025).

Biological target: T1, 14-3-3ζ/Rubic peptide (Homo sapiens, UniProt P63104)
T1 construct: made in house; host or cells: NiCo21 (DE3) E. coli
Experiment: FA peptide screen, 14-3-3ζ titration to client peptide and compound: Rubic
Assay type: binding
Conditions: 250 μM compound, 100 nM peptide; +1 Phe
Procedure: Since the hub protein 14-3-3 binds to hundreds of phosphoprotein partners, selectivity of PPI stabilization is a major challenge. The interplay of chemical reactivity, and the topology and functionality of the composite binding pocket shaped by 14-3-3 and Tau potentially provide entries towards selective stabilization. […] Here, 14-3-3ζ was titrated to a constant concentration of client peptide (100 nM) and compound (250 μM) to determine the SF250μM values for the particular 14-3-3 PPI. A variety of 14-3-3 binding proteins was represented in this client panel whereby the size and hydrophobicity of the +1 amino acid were varied. […]
chromatography (HisTrap high performance cartridges, Cytiva). Typically two 5 mL columns were used for a 2 L culture in which the lysate was loaded on the column, washed with 10 CV wash buffer (50 mM Hepes, pH 8.0, 300 mM NaCl, 25 mM imidazole, 2 mM βME), and eluted with several fractions (2-4 CV) of elution buffer (50 mM Hepes, pH 8.0, 300 mM NaCl, 250 mM imidazole, 2 mM βME). […] Dialyzed protein was concentrated to ∼40 mg/mL, analyzed by Q -Tof LC/MS, and aliquots were flash -frozen for storage at −80 °C. […] Fractions containing the 14 -3-3 protein were pooled and concentrated to ∼60 mg/mL, analyzed Q -Tof LC/MS, and aliquots were flash -frozen for storage at −80°C.
Fluorescence Anisotropy – compound titration […]

T1 sequence (P63104 whole entry, other chains not shown): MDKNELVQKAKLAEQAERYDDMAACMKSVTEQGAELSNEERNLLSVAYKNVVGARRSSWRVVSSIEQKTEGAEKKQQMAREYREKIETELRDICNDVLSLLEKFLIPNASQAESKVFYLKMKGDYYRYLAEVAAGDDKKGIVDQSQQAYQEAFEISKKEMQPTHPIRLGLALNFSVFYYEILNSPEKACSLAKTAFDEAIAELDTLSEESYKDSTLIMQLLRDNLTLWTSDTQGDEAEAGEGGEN

**Q.** `CCc1ccc(-c2nccn2-c2ccc(C=O)c(Br)c2)cc1` [Compound 18] was tested. Which “stabilization of 14-3-3/Rubic peptide (in words)” value did it give?
**A.** Its value is “no significant stabilization”.
